This is an account of results in US6410558B1, “Fungicides for the control of take-all disease of plants” (Monsanto Technology LLC, priority 1991, dated 2002).

By inhibition is commonly meant the drop in the measured response relative to a control, in per cent.

Molecules are shown by their SMILES.

Assay [1] has as its system Gaeumannomyces graminis var. tritici (Ggt). The assay can be described thus: In vitro Assay: mycelial growth of Ggt on minimal media agar plates containing test compound. The format is cell-based. Particulars: dark, 19-20° C., 4 to 5 days, diameter of mycelial growth; for inhibition at 0.1 ppm / inhibition at 1 ppm / inhibition at 10 ppm: Gaeumannomyces graminis; for inhibition at 0.1 ppm: read-out: In vitro (ppm) 0.1, Percent Inhibition; for inhibition at 1 ppm: read-out: In vitro (ppm) 1, Percent Inhibition; for inhibition at 10 ppm: read-out: In vitro (ppm) 10, Percent Inhibition. In a few lines:
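Ggt mycelial diameter read after 4 to 5 days in darkness at 19-20° C, from three 4-mm plugs placed on Czapek Dox minimal agar containing test compound delivered in acetone. Inhibition expressed as percent versus untreated plates, plug size (4 mm) subtracted from both.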

A further assay relates to Ggt. Briefly: In vivo Assay: control of Ggt on wheat grown in pots of Ggt-infested soil, root disease rating. More on the design: species or system Gaeumannomyces graminis var. tritici. Particulars: 0.5 mg active ingredient per pot, 'Bergen' or 'Anza' wheat in Ggt-infested soil, after four weeks, vs untreated control; for pest or weed control at 0.5 mg/pot: Gaeumannomyces graminis, 672 h, read-out: In vivo, percent disease control. As for the experimental part: Compounds are tested for control of Ggt on ‘Bergen’ or ‘Anza’ varieties of wheat grown in 3-inch square pots containing soil infested with Ggt. The infestation is accomplished by mixing the soil with an inoculum prepared by growing Ggt on ¼ strength potato dextrose agar (4.875 g potato dextrose agar, 5.0 g Bacto agar, 500 mL distilled, deionized water) in plates and using plugs from the plates to infest sterile oats (400 cc whole oats, 350 mL deionized water, autoclaved). After a one-month incubation period at room temperature, the oats are dried and mixed with the soil at 4% v/v. Four wheat seeds are placed on top of the soil in each pot. The test compounds are prepared as an 1:9 acetone/water v/v solution containing 0.18% Tween® 20 to provide a treatment rate of 0.5 mg active ingredient per pot, treated with 3 mL test solution per pot. Five pots are used for each treatment level and the controls, which are untreated, inoculated and non-inoculated pots. After one hour drying time, the seeds are covered with more of the appropriate soil and a layer of vermiculite. The pots are placed in a growth chamber and watered each day. After four weeks, each pot is evaluated for evidence of disease by examination of the seminal roots of each plant under a dissecting microscope. A 0 to 5 rating scale having the following meanings is used:
0=no runner hyphae or lesions present
1=runner hyphae and a few small lesions present on <10% of root system
2=runner hyphae and small lesions present on 10-25% of root system
3=runner hyphae and lesions present on 25-50% of root system
4=runner hyphae and many, large, coalescing lesions on >50% of root system
5=root system and culm completely inundated with lesions and runner hyphae
From each set of five replicates a high and low score is eliminated and a replicate mean is calculated by the average of the remaining three scores. This mean score is then compared to the untreated control score and a percent disease control is calculated.

As for `CCCNC(=O)c1c(Cl)cccc1[Si](C)(C)C` [Example 26, 2-Chloro-N-propyl-6-(trimethylsilyl)benzamide], the inhibition at 0.1 ppm in assay [1] (0.1 ppm in minimal media agar) worked out at 95%. For the same molecule, the inhibition at 1 ppm in assay [1] (1 ppm in minimal media agar) was 95%. For the same molecule, in assay [1] (10 ppm in minimal media agar), the inhibition at 10 ppm was 97%. Further, the pest or weed control at 0.5 mg/pot with Ggt was 99%.
For the molecule `CCN(C)C(=O)c1c(Cl)cccc1[Si](C)(C)C` [Example 22, 2-Chloro-N-ethyl-N-methyl-6-(trimethylsilyl)benzamide], the inhibition at 0.1 ppm in assay [1] (0.1 ppm in minimal media agar) came out at 13%. Further, in assay [1] (1 ppm in minimal media agar), the inhibition at 1 ppm was below 0%. Moreover, the inhibition at 10 ppm in assay [1] (10 ppm in minimal media agar) is 46%. In addition, the pest or weed control at 0.5 mg/pot in the assay on Ggt amounted to 91%.
For `CCNC(=O)c1c(C(F)(F)F)cccc1[Si](C)(C)C` [Example 82, N-Ethyl-2-(trifluoromethyl)-6-(trimethylsilyl)benzamide], in that order: 30%, below 0%, 57% and 58%.
Turning to `CCN(CC)C(=O)c1c(Cl)ccc[c]1[Sn]([CH3])([CH3])[CH3]` [Example 7, 2-Chloro-N,N-diethyl-6-(trimethylstannyl)benzamide], the “In vitro (ppm) 0.1, Percent Inhibition” value in assay [1] (0.1 ppm in minimal media agar) is 42%. Also, the “In vitro (ppm) 1, Percent Inhibition” value in assay [1] (1 ppm in minimal media agar) is on record as 77%. Besides, the “In vitro (ppm) 10, Percent Inhibition” value in assay [1] (10 ppm in minimal media agar) worked out at 100%. The “In vivo, percent disease control” value in the assay on Ggt turned out to be 93%.
As to `CCN(CC)C(=O)c1c(C(F)F)ccc(F)c1[Si](C)(C)C` [Example 52, N,N-Diethyl-6-(difluoromethyl)-3-fluoro-2-(trimethylsilyl)benzamide], in assay [1] (0.1 ppm in minimal media agar), the inhibition at 0.1 ppm was determined as 53%. In assay [1] (1 ppm in minimal media agar), the inhibition at 1 ppm worked out at 81%. In addition, in assay [1] (10 ppm in minimal media agar), the inhibition at 10 ppm came out at 98%. The pest or weed control at 0.5 mg/pot with Ggt turned out to be 96%.
For `CCN(CC)C(=S)c1c(C)ccc(F)c1[Si](C)(C)C` [Example 53, N,N-Diethyl-3-fluoro-6-methyl-2-(trimethylsilyl)thiobenzamide], in that order: 9%, 19%, 95% and 65%.
The matching figures for `CCNC(=O)c1c(Cl)ccc([N+](=O)[O-])c1[Si](C)(C)C` [Example 215, 6-Chloro-N-ethyl-3-nitro-2-(trimethylsilyl)benzamide]: 46%, 96%, 100% and 57%.
For `C[Si](C)(C)c1cccc(Cl)c1C(=O)NCCCl` [Example 29, 2-Chloro-N-(2-chloroethyl)-6-(trimethylsilyl)benzamide], in that order: 100%, 100%, 100% and 97%.
As to `CSNC(=O)c1c(Cl)cccc1[Si](C)(C)C` [Example 174, 2-Chloro-N-(methylthio)-6-(trimethylsilyl)benzamide], in assay [1] (0.1 ppm in minimal media agar), the inhibition at 0.1 ppm came out at 12%. Moreover, the inhibition at 1 ppm in assay [1] (1 ppm in minimal media agar) was 65%. Also, the pest or weed control at 0.5 mg/pot in the assay on Ggt worked out at 0%.
Turning to `CCCN(CCC)C(=O)c1c(Cl)cccc1[Si](C)(C)C` [Example 36, 2-Chloro-N,N-dipropyl-6-(trimethylsilyl)benzamide], the inhibition at 0.1 ppm in assay [1] (0.1 ppm in minimal media agar) worked out at 26%. In assay [1] (1 ppm in minimal media agar), the inhibition at 1 ppm came out at 69%. Further, the inhibition at 10 ppm in assay [1] (10 ppm in minimal media agar) stood at 100%. Further, in the assay on Ggt, the pest or weed control at 0.5 mg/pot worked out at 88%.
For `CCNC(=O)c1c([Si](C)(C)C)ccc(CF)c1Cl` [Example 228, 2-Chloro-N-ethyl-3-(fluoromethyl)-6-(trimethylsilyl)benzamide], in that order: below 0%, 87%, 96% and 84%.
The matching figures for `CCN(SC)C(=O)c1sccc1[Si](C)(C)C` [Example 272, N-Ethyl-N-(methylthio)-3-(trimethylsilyl)-2-thiophenecarboxamide]: 14%, 23%, 100% and 0%.
For `CCN(CC)C(=O)c1c(Cl)ccc(F)c1[Si](C)(C)C` [Example 38, 6-Chloro-N,N-diethyl-3-fluoro-2-(trimethylsilyl)benzamide], in that order: 53%, 79%, 100% and 95%.
For `C[Si](C)(C)c1cccc(Cl)c1C(=O)N1CCOCC1` [Example 132, N-[2-Chloro-6-(trimethylsilyl)benzoyl]-morpholine], the inhibition at 0.1 ppm in assay [1] (0.1 ppm in minimal media agar) came to 54%. Moreover, the inhibition at 1 ppm in assay [1] (1 ppm in minimal media agar) came to 15%. For the same molecule, in assay [1] (10 ppm in minimal media agar), the inhibition at 10 ppm worked out at 46%. In addition, the pest or weed control at 0.5 mg/pot with Ggt was below 0%.
For the molecule `CCN(CC)C(=O)c1c(C)cc(C)cc1[Si](C)(C)C` [Example 60, N,N-Diethyl-2,4-dimethyl-6-(trimethylsilyl)benzamide], the inhibition at 0.1 ppm in assay [1] (0.1 ppm in minimal media agar) is below 0%. Besides, the inhibition at 1 ppm in assay [1] (1 ppm in minimal media agar) is below 0%. The inhibition at 10 ppm in assay [1] (10 ppm in minimal media agar) was 19%.
As for `CCNC(=O)c1c(Cl)cccc1-c1cccc2ccccc12` [Example 73, 2-Chloro-N-ethyl-6-(1-naphthalenyl)benzamide], in assay [1] (0.1 ppm in minimal media agar), the inhibition at 0.1 ppm came out at 13%. Moreover, the inhibition at 1 ppm in assay [1] (1 ppm in minimal media agar) came to 60%. Also, in assay [1] (10 ppm in minimal media agar), the inhibition at 10 ppm worked out at 83%.
In the case of `CCN(CC)C(=O)c1c([Si](C)(C)C)ccc(Cl)c1Cl` [Example 84, N,N-Diethyl-2,3-dichloro-6-(trimethylsilyl)benzamide], the inhibition at 0.1 ppm in assay [1] (0.1 ppm in minimal media agar) is below 0%. The inhibition at 1 ppm in assay [1] (1 ppm in minimal media agar) is 66%. Also, the inhibition at 10 ppm in assay [1] (10 ppm in minimal media agar) was 100%.
As for `CCNC(=O)C1=CSC(Cl)N1[Si](C)(C)C` (stereo not shown) [Example 283, 2-Chloro-N-ethyl-3-(trimethylsilyl)-4-thiazolecarboxamide], the inhibition at 0.1 ppm in assay [1] (0.1 ppm in minimal media agar) is below 0%. Besides, in assay [1] (1 ppm in minimal media agar), the inhibition at 1 ppm was 3%. Besides, the inhibition at 10 ppm in assay [1] (10 ppm in minimal media agar) came out at 42%.
Take `CC(C)N(C)C(=O)c1c(Cl)cccc1[Si](C)(C)C` [Example 164, 2-Chloro-N-methyl-N-(1-methylethyl)-6-(trimethylsilyl)benzamide]: the inhibition at 0.1 ppm in assay [1] (0.1 ppm in minimal media agar) worked out at 3%. Also, the inhibition at 1 ppm in assay [1] (1 ppm in minimal media agar) came out at 3%. Besides, the inhibition at 10 ppm in assay [1] (10 ppm in minimal media agar) amounted to 70%.
With `CCCSC(=O)c1c(Cl)cccc1[Si](C)(C)C` [Example 79, 2-Chloro-6-(trimethylsilyl)-benzenecarbothioic acid, S-propyl ester], the inhibition at 0.1 ppm in assay [1] (0.1 ppm in minimal media agar) was 12%. In assay [1] (1 ppm in minimal media agar), the inhibition at 1 ppm amounted to 12%. Besides, the inhibition at 10 ppm in assay [1] (10 ppm in minimal media agar) came to 65%.
As for `CCN(CC)C(=O)c1cccc(F)c1[Si](C)(C)C(C)(C)C` [Example 9, 2-[(1,1-Dimethylethyl)dimethylsilyl]-N,N-diethyl-3-fluorobenzamide], in assay [1] (0.1 ppm in minimal media agar), the inhibition at 0.1 ppm is 3%. Besides, the inhibition at 1 ppm in assay [1] (1 ppm in minimal media agar) is below 0%. For the same molecule, the inhibition at 10 ppm in assay [1] (10 ppm in minimal media agar) turned out to be 71%.
For `CCN(CC)C(=O)c1ccc(C)c(F)c1[Si](C)(C)C` [Example 57, N,N-Diethyl-3-fluoro-4-methyl-2-(trimethylsilyl)benzamide], in that order: 10%, below 0% and 90%.
The matching figures for `C/C=C/NC(=O)c1c(Cl)cccc1[Si](C)(C)C` [Example 113, (E)-2-Chloro-N-1-propenyl-6-(trimethylsilyl)benzamide]: below 0%, 26% and 96%.
The matching figures for `CC(C)SC(=O)c1c(Cl)cccc1[Si](C)(C)C` [Example 78, 2-Chloro-6-(trimethylsilyl)-benzenecarbothioic acid, S-(1-methylethyl) ester]: 12%, 12% and 62%.
In the case of `CCNC(=O)c1cc(N=C=S)ccc1[Si](C)(C)C` [Example 245, N-Ethyl-5-isothiocyanato-2-(trimethylsilyl)benzamide], the inhibition at 0.1 ppm in assay [1] (0.1 ppm in minimal media agar) was 50%. For the same molecule, the inhibition at 1 ppm in assay [1] (1 ppm in minimal media agar) is 100%. Besides, the inhibition at 10 ppm in assay [1] (10 ppm in minimal media agar) came to 100%.
